Source: US11554171B2, “Compounds and methods for the targeted degradation of bromodomain-containing proteins” (Arvinas Operations, Inc., priority 2015, dated 2023)

System: c-myc in 22RV-1 cells
Experiment: Human c-myc ELISA assay
Assay type: cell-based
Details: Homo sapiens; for Emax: 22Rv1, 18 h, read-out: Degradation of BRD4: Maximum inhibition (%) c-Myc ELISA in 22RV1 cells; for DC50: 22Rv1, read-out: Degradation of BRD4: DC50 (uM) c-Myc ELISA in 22RV1 cells
Outline: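 22RV-1 cells treated 18 h with 8-point 1:3 compound dilutions (final top 300 nM or 1 μM, 0.1% DMSO). Cells lysed in RIPA buffer with protease/phosphatase inhibitors, and c-myc protein in cleared lysate quantified by ELISA against a standard curve. DC50 reported for c-myc suppression.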

| SMILES | DC50 [µM] | Emax [%] |
| --- | --- | --- |
| CNC[C@@H](NC(=O)[C@@H]1C[C@@H](O)CN1C(=O)[C@@H](NC(=O)COCCCOCCNC(=O)C[C@@H]1N=C(c2ccc(Cl)cc2)c2c(sc(C)c2C)-n2c(C)nnc21)C(C)(C)C)c1ccc(-c2scnc2C)cc1 [Example 111] | > 1 | 47.3 |
| Cc1ncsc1-c1ccc(CNC(=O)[C@@H]2C[C@@H](O)CN2C(=O)[C@@H](NC(=O)COCCC[S+]([O-])CCNC(=O)C[C@@H]2N=C(c3ccc(Cl)cc3)c3c(sc(C)c3C)-n3c(C)nnc32)C(C)(C)C)cc1 (some centres unmarked) [Example 112] | > 1 | 26.8 |
| Cc1ncsc1-c1ccc(CNC(=O)[C@@H]2C[C@@H](O)CN2C(=O)[C@@H](NC(=O)COc2ccc(S(=O)(=O)CCNC(=O)C[C@@H]3N=C(c4ccc(Cl)cc4)c4c(sc(C)c4C)-n4c(C)nnc43)cc2)C(C)(C)C)cc1 [Example 113] | 0.01 to 0.1 | 88.5 |
| Cc1ncsc1-c1ccc(CNC(=O)[C@@H]2C[C@@H](O)CN2C(=O)[C@@H](NC(=O)COCCCOCCOc2ccc3c(c2)c2c(C(N)=O)cc(-c4c(C)noc4C)cc2n3Cc2ccccc2)C(C)(C)C)cc1 [Example 116, 9-benzyl-2-(dimethyl-1,2-oxazol-4-yl)-6-{2-[3-({[(2S)-1-[(2S,4R)-4-hydroxy-2-({[4-(4-methyl-1,3-thiazol-5-yl)phenyl]methyl}carbamoyl)pyrrolidin-1-yl]-3,3-dimethyl-1-oxobutan-2-yl]carbamoyl}methoxy)propoxy]ethoxy}-9H-carbazole-4-carboxamide] | 0.01 to 0.1 | 100 |
| Cc1ncsc1-c1ccc(CNC(=O)[C@@H]2C[C@@H](O)CN2C(=O)[C@@H](NC(=O)COCCCOCCCCOc2ccc3c(c2)c2c(C(N)=O)cc(-c4c(C)noc4C)cc2n3Cc2ccccc2)C(C)(C)C)cc1 [Example 117, 9-benzyl-2-(dimethyl-1,2-oxazol-4-yl)-6-{4-[3-({[(2S)-1-[(2S,4R)-4-hydroxy-2-({[4-(4-methyl-1,3-thiazol-5-yl)phenyl]methyl}carbamoyl)pyrrolidin-1-yl]-3,3-dimethyl-1-oxobutan-2-yl]carbamoyl}methoxy)propoxy]butoxy}-9H-carbazole-4-carboxamide] | < 0.01 | 100 |
| Cc1ncsc1-c1ccc(CNC(=O)[C@@H]2C[C@@H](O)CN2C(=O)[C@@H](NC(=O)COc2ccc(O[C@H]3C[C@@H](NC(=O)C[C@@H]4N=C(c5ccc(Cl)cc5)c5c(sc(C)c5C)-n5c(C)nnc54)C3)nc2)C(C)(C)C)cc1 [Example 118] | < 0.01 | 94.4 |
| Cc1ncsc1-c1ccc([C@H](C)NC(=O)[C@@H]2C[C@@H](O)CN2C(=O)[C@@H](NC(=O)COc2ccc(O[C@H]3C[C@@H](NC(=O)C[C@@H]4N=C(c5ccc(Cl)cc5)c5c(sc(C)c5C)-n5c(C)nnc54)C3)nc2)C(C)(C)C)cc1 [Example 119, (2S,4R)-1-[(2S)-3,3-dimethyl-2-[2-({6-[(1,3-cis)-3-{2-[(9S)-7-(4-chlorophenyl)-4,5,13-trimethyl-3-thia-1,8,11,12-tetraazatricyclo[8.3.0.0^2,^6]trideca-2(6),4,7,10,12-pentaen-9-yl]acetamido}cyclobutoxy]pyridin-3-yl}oxy)acetamido]butanoyl]-4-hydroxy-N-[(1S)-1-[4-(4-methyl-1,3-thiazol-5-yl)phenyl]ethyl]pyrrolidine-2-carboxamide] | < 0.01 | 96 |
| Cc1ncsc1-c1ccc(CNC(=O)[C@@H]2C[C@@H](O)CN2C(=O)[C@H](c2cc(OCCCCCNC(=O)C[C@@H]3N=C(c4ccc(Cl)cc4)c4c(sc(C)c4C)-n4c(C)nnc43)no2)C(C)C)cc1 [Example 120] | 0.1 to 1 | 79.5 |
| Cc1ncsc1-c1ccc(CNC(=O)[C@@H]2C[C@@H](O)CN2C(=O)[C@@H](c2cc(OCCCCCNC(=O)C[C@@H]3N=C(c4ccc(Cl)cc4)c4c(sc(C)c4C)-n4c(C)nnc43)no2)C(C)C)cc1 [Example 121] | < 0.01 | 98.5 |
| Cc1ncsc1-c1ccc(CNC(=O)[C@@H]2C[C@@H](O)CN2C(=O)[C@@H](NC(=O)CCN2CCC(OCCNC(=O)C[C@@H]3N=C(c4ccc(Cl)cc4)c4c(sc(C)c4C)-n4c(C)nnc43)CC2)C(C)(C)C)cc1 [Example 123] | > 1 | 19.7 |
| Cc1ncsc1-c1ccc(CNC(=O)[C@@H]2C[C@@H](O)CN2C(=O)[C@@H](NC(=O)COCCCCCOc2cccc(NC(=O)C[C@@H]3N=C(c4ccc(Cl)cc4)c4c(sc(C)c4C)-n4c(C)nnc43)c2)C(C)(C)C)cc1 [Example 125] | < 0.01 | 99.5 |
| Cc1ncsc1-c1ccc(CNC(=O)[C@@H]2C[C@@H](O)CN2C(=O)[C@@H](NC(=O)COCCCOCCOc2cc(NC(=O)C[C@@H]3N=C(c4ccc(Cl)cc4)c4c(sc(C)c4C)-n4c(C)nnc43)ccc2F)C(C)(C)C)cc1 [Example 130] | < 0.01 | 99 |
| Cc1ncsc1-c1ccc(CNC(=O)[C@@H]2C[C@@H](O)CN2C(=O)[C@@H](NC(=O)COCCCOCCCOc2ccc3c(c2)c2c(C(N)=O)cc(-c4c(C)noc4C)cc2n3Cc2ccccc2)C(C)(C)C)cc1 [Example 133, 9-benzyl-2-(dimethyl-1,2-oxazol-4-yl)-6-{3-[3-({[(2S)-1-[(2S,4R)-4-hydroxy-2-({[4-(4-methyl-1,3-thiazol-5-yl)phenyl]methyl}carbamoyl)pyrrolidin-1-yl]-3,3-dimethyl-1-oxobutan-2-yl]carbamoyl}methoxy)propoxy]propoxy}-9H-carbazole-4-carboxamide] | 0.01 to 0.1 | 98 |

Continued, in another order:

| DC50 [µM] | SMILES | Emax [%] |
| --- | --- | --- |
| < 0.01 | Cc1ncsc1-c1ccc([C@H](C)NC(=O)[C@@H]2C[C@@H](O)CN2C(=O)[C@@H](NC(=O)c2ccc(OCCCNC(=O)C[C@@H]3N=C(c4ccc(Cl)cc4)c4c(sc(C)c4C)-n4c(C)nnc43)cn2)C(C)(C)C)cc1 [Example 114, 5-(3-{2-[(9S)-7-(4-chlorophenyl)-4,5,13-trimethyl-3-thia-1,8,11,12-tetraazatricyclo[8.3.0.0^2,^6]trideca-2(6),4,7,10,12-pentaen-9-yl]acetamido}propoxy)-N-[(2S)-1-[(2S,4R)-4-hydroxy-2-{[(1S)-1-[4-(4-methyl-1,3-thiazol-5-yl)phenyl]ethyl]carbamoyl}pyrrolidin-1-yl]-3,3-dimethyl-1-oxobutan-2-yl]pyridine-2-carboxamide] | 99.5 |
| < 0.01 | Cc1ncsc1-c1ccc([C@H](C)NC(=O)[C@@H]2C[C@@H](O)CN2C(=O)[C@@H](NC(=O)c2ccc(OCCCCNC(=O)C[C@@H]3N=C(c4ccc(Cl)cc4)c4c(sc(C)c4C)-n4c(C)nnc43)cn2)C(C)(C)C)cc1 [Example 115] | 100 |
| < 0.01 | Cc1ncsc1-c1ccc([C@H](C)NC(=O)[C@@H]2C[C@@H](O)CN2C(=O)[C@@H](NC(=O)/C=C/c2cccc(OCCNC(=O)C[C@@H]3N=C(c4ccc(Cl)cc4)c4c(sc(C)c4C)-n4c(C)nnc43)c2)C(C)(C)C)cc1 [Example 122] | 100 |
| < 0.01 | Cc1ncsc1-c1ccc([C@H](C)NC(=O)[C@@H]2C[C@@H](O)CN2C(=O)[C@@H](NC(=O)COCCOc2cccc(NC(=O)C[C@@H]3N=C(c4ccc(Cl)cc4)c4c(sc(C)c4C)-n4c(C)nnc43)c2)C(C)(C)C)cc1 [Example 124] | 98 |
| < 0.01 | Cc1ncsc1-c1ccc(CNC(=O)[C@@H]2C[C@@H](O)CN2C(=O)[C@@H](NC(=O)COCCCCOc2cccc(NC(=O)C[C@@H]3N=C(c4ccc(Cl)cc4)c4c(sc(C)c4C)-n4c(C)nnc43)c2)C(C)(C)C)cc1 [Example 126] | 99 |
| < 0.01 | Cc1ncsc1-c1ccc([C@H](C)NC(=O)[C@@H]2C[C@@H](O)CN2C(=O)[C@@H](NC(=O)COc2cccc(OCCNC(=O)C[C@@H]3N=C(c4ccc(Cl)cc4)c4c(sc(C)c4C)-n4c(C)nnc43)c2)C(C)(C)C)cc1 [Example 127, (2S,4R)-1-[(2S)-2-{2-[3-(2-{2-[(9S)-7-(4-chlorophenyl)-4,5,13-trimethyl-3-thia-1,8,11,12-tetraazatricyclo[8.3.0.0^2,^6]trideca-2(6),4,7,10,12-pentaen-9-yl]acetamido}ethoxy)phenoxy]acetamido}-3,3-dimethylbutanoyl]-4-hydroxy-N-[(1S)-1-[4-(4-methyl-1,3-thiazol-5-yl)phenyl]ethyl]pyrrolidine-2-carboxamide] | 99 |
| < 0.01 | Cc1ncsc1-c1ccc([C@H](C)NC(=O)[C@@H]2C[C@@H](O)CN2C(=O)[C@@H](NC(=O)COc2ccc(OCCNC(=O)C[C@@H]3N=C(c4ccc(Cl)cc4)c4c(sc(C)c4C)-n4c(C)nnc43)nc2)C(C)(C)C)cc1 [Example 128, (2S,4R)-1-[(2S)-2-(2-{[6-(2-{2-[(9S)-7-(4-chlorophenyl)-4,5,13-trimethyl-3-thia-1,8,11,12-tetraazatricyclo[8.3.0.0^2,^6]trideca-2(6),4,7,10,12-pentaen-9-yl]acetamido}ethoxy)pyridin-3-yl]oxy}acetamido)-3,3-dimethylbutanoyl]-4-hydroxy-N-[(1S)-1-[4-(4-methyl-1,3-thiazol-5-yl)phenyl]ethyl]pyrrolidine-2-carboxamide] | 100 |
| < 0.01 | Cc1ncsc1-c1ccc([C@H](C)NC(=O)[C@@H]2C[C@@H](O)CN2C(=O)[C@@H](NC(=O)COCCCOCCOc2cccc(NC(=O)C[C@@H]3N=C(c4ccc(Cl)cc4)c4c(sc(C)c4C)-n4c(C)nnc43)c2)C(C)(C)C)cc1 [Example 129] | 96 |
| < 0.01 | Cc1ncsc1-c1ccc([C@H](C)NC(=O)[C@@H]2C[C@@H](O)CN2C(=O)[C@@H](NC(=O)c2ccc(OCCCNC(=O)C[C@@H]3N=C(c4ccc(Cl)cc4)c4c(sc(C)c4C)-n4c(C)nnc43)cc2)C(C)(C)C)cc1 [Example 132, (2S,4R)-1-[(2S)-2-{[4-(3-{2-[(9S)-7-(4-chlorophenyl)-4,5,13-trimethyl-3-thia-1,8,11,12-tetraazatricyclo[8.3.0.0^2,^6]trideca-2(6),4,7,10,12-pentaen-9-yl]acetamido}propoxy)phenyl]formamido}-3,3-dimethylbutanoyl]-4-hydroxy-N-[(1S)-1-[4-(4-methyl-1,3-thiazol-5-yl)phenyl]ethyl]pyrrolidine-2-carboxamide] | 99 |
